Test results reported in article PMC8704606, “The Artemiside-Artemisox-Artemisone-M1 Tetrad: Efficacies against Blood Stage P. falciparum Parasites, DMPK Properties, and the Case for Artemiside” (Pharmaceutics, 2021).
Like-named read-outs stand apart in the source and are kept apart here.

Legend:
[1] = Pharmacokinetics and metabolism after iv and po administration; type: in vivo; details: for half-life: mean ± SD, read-out: t½ (converted); for MRT last: read-out: MRT0-last; for AUC(0-t): up to 7 h
Description: The plasma concentration-time profiles of the parent compounds and metabolites after administration iv and po to male C57/BL6 mice are presented in Figure 2, Figure 3 and Figure 4. Artemiside was quantifiable up to 24 h in all mice dosed iv and up to 7 h po (lower limit of quantitation LLOQ = 1.6 ng/mL or 0.004 μM) (Figure 2). […] For both artemiside and artemisox, the metabolite artemisone was quantifiable up to 3 h in both the po and iv groups (Figure 2 and Figure 3). Thereby it is confirmed that artemiside is rapidly converted via artemisox into artemisone. Artemisone itself was quantifiable up to three hours post dose (Figure 4). The mean circulating concentrations for the compounds and their metabolites are presented in Table S3a–f in the Supplementary Material 1. The metabolite M1 was also detected upon administration of artemiside, artemisox, and artemisone, but it was not quantified here; chromatograms indicating the presence of M1 are illustrated in Figure S3a–c in the Supplementary Material 1. In addition, the plasma concentration-time curves for artemiside and its metabolites artemisone and M1 following iv and po dosing in the same murine model are presented and discussed in detail elsewhere (cf. Figure 4 in reference).
All work was conducted with prior approval of the animal ethics committee of the University of Cape Town in accordance with the South African National Standards for the Care and Use of Animals for Scientific Purposes and guidelines from the South African Department of Health. The requirements and methods for the pharmacokinetics in vivo involving po and iv drug administration, sample extraction, analyses of samples by LC-MS/MS, and data analyses are described elsewhere. For the animal experiments and formulations, the compounds were dissolved in a 10:60:30 mixture of N,N-dimethylacetamide-polypropylene glycol-polyethylene glycol for intravenous dosing (iv) at 5 mg/kg. For the oral dose (po), compounds were individually dosed as a suspension in 0.5% (w/v) hydroxypropylmethylcellulose in water with 0.2% Tween80 at 50 mg/kg to male C57/BL6 mice (n = 3 for each group). For PK sampling, blood samples were collected at predetermined times (0.08, 0.25, 0.5, 1, 3, 5, 7, and 24 h) for both po and iv dosing via tail bleeding into heparinized tubes, centrifuged, and the plasma samples were stored at −80 °C until extraction. For preparation of samples, the frozen plasma samples were thawed and 15 μL was extracted by liquid–liquid extraction using a universal buffer (pH8) containing 10 ng/mL of the internal standard and ethyl acetate, and the extract was vortexed and centrifuged. Calibration standards and quality controls were extracted following the same procedure. Supernatants were dried down, reconstituted, and injected onto the column for LC-MS/MS analysis using an AB SCIEX 5500 QTRAP instrument coupled to an Agilent 1260 HPLC detection system as previously described.

[2] = Cytotoxicity (LDH assay) against HepG2 cells; type: cell-based; details: human, HepG2 cells (hepatocellular carcinoma)
Description: Cytotoxicity against mammalian hepatocellular carcinoma cells (HepG2 cells) was determined using the lactate dehydrogenase assay (LDH, Biovision Inc., Milpitas, CA, USA). […] Compound working solutions were prepared from 10 mM stock solutions (100% DMSO) in complete DMEM to a final DMSO (Sigma-Aldrich) conc. of <0.1% (vol/vol). […] Data analysis was performed using GraphPad Prism (version 6) software.

[3] = system: P. falciparum asexual blood stage artemisinin-resistant clone PL08-009 (5C) carrying the PfKI3 C580Y mutation; parameters: method as in ref S3; details: ref S3, cited from earlier work
[4] = system: asexual blood stages of Pf K1 (drug resistant); parameters: method as in PMID 29866868, PMID 31998692; details: cited from earlier work
HepG2 = details: ref S3, cited from earlier work
[5] = male, C57/BL6, mouse, plasma, iv 5 mg/kg, parent drug
[6] = male, C57/BL6, mouse, plasma, po 50 mg/kg, parent drug

SMILES: C[C@H]1[C@H](N2CCS(=O)(=O)CC2)O[C@@H]2O[C@@]3(C)CC[C@H]4[C@H](C)CC[C@@H]1[C@@]24OO3 [Artemisone 7, Artemisone]
- concentration at 3 h ([1]; male, C57/BL6, mouse, plasma, iv, 5 mg/kg, 3 h after iv 5 mg/kg artemisone 7, read-out: Mean iv circulating concentration): 28 nM
- concentration at 3 h ([1]; male, C57/BL6, mouse, plasma, iv, 5 mg/kg, 3 h after iv 5 mg/kg artemisox 6, read-out: Mean iv circulating concentration): 7 nM
- concentration at 5 h ([1]; male, C57/BL6, mouse, plasma, iv, 5 mg/kg, 5 h after iv 5 mg/kg artemiside 5, read-out: Mean iv circulating concentration): 5 nM
- half-life ([1]; male, C57/BL6, mouse, plasma, iv, 5 mg/kg, iv 5 mg/kg, parent drug): 24 min
- concentration at 0.08 h ([1]; male, C57/BL6, mouse, plasma, po, 50 mg/kg, 0.08 h after po 50 mg/kg artemiside 5, read-out: Mean po circulating concentration): 1000 nM
- concentration at 0.08 h ([1]; male, C57/BL6, mouse, plasma, po, 50 mg/kg, 0.08 h after po 50 mg/kg artemisone 7, read-out: Mean po circulating concentration): 1630 nM
- concentration at 0.08 h ([1]; male, C57/BL6, mouse, plasma, po, 50 mg/kg, 0.08 h after po 50 mg/kg artemisox 6, read-out: Mean po circulating concentration): 3640 nM
- concentration at 0.25 h ([1]; male, C57/BL6, mouse, plasma, po, 50 mg/kg, 0.25 h after po 50 mg/kg artemiside 5, read-out: Mean po circulating concentration): 1390 nM
- concentration at 0.25 h ([1]; male, C57/BL6, mouse, plasma, po, 50 mg/kg, 0.25 h after po 50 mg/kg artemisone 7, read-out: Mean po circulating concentration): 1520 nM
- concentration at 0.25 h ([1]; male, C57/BL6, mouse, plasma, po, 50 mg/kg, 0.25 h after po 50 mg/kg artemisox 6, read-out: Mean po circulating concentration): 3530 nM
- concentration at 0.5 h ([1]; male, C57/BL6, mouse, plasma, po, 50 mg/kg, 0.5 h after po 50 mg/kg artemiside 5, read-out: Mean po circulating concentration): 1790 nM
- concentration at 0.5 h ([1]; male, C57/BL6, mouse, plasma, po, 50 mg/kg, 0.5 h after po 50 mg/kg artemisone 7, read-out: Mean po circulating concentration): 1140 nM
- concentration at 0.5 h ([1]; male, C57/BL6, mouse, plasma, po, 50 mg/kg, 0.5 h after po 50 mg/kg artemisox 6, read-out: Mean po circulating concentration): 3690 nM
- concentration at 1 h ([1]; male, C57/BL6, mouse, plasma, po, 50 mg/kg, 1 h after po 50 mg/kg artemiside 5, read-out: Mean po circulating concentration): 1670 nM
- concentration at 1 h ([1]; male, C57/BL6, mouse, plasma, po, 50 mg/kg, 1 h after po 50 mg/kg artemisone 7, read-out: Mean po circulating concentration): 357 nM
- concentration at 1 h ([1]; male, C57/BL6, mouse, plasma, po, 50 mg/kg, 1 h after po 50 mg/kg artemisox 6, read-out: Mean po circulating concentration): 3200 nM
- concentration at 3 h ([1]; male, C57/BL6, mouse, plasma, po, 50 mg/kg, 3 h after po 50 mg/kg artemiside 5, read-out: Mean po circulating concentration): 179 nM
- concentration at 3 h ([1]; male, C57/BL6, mouse, plasma, po, 50 mg/kg, 3 h after po 50 mg/kg artemisone 7, read-out: Mean po circulating concentration): 12 nM
- concentration at 3 h ([1]; male, C57/BL6, mouse, plasma, po, 50 mg/kg, 3 h after po 50 mg/kg artemisox 6, read-out: Mean po circulating concentration): 48 nM
- concentration at 5 h ([1]; male, C57/BL6, mouse, plasma, po, 50 mg/kg, 5 h after po 50 mg/kg artemisox 6, read-out: Mean po circulating concentration): 7 nM
- half-life ([1]; male, C57/BL6, mouse, plasma, po, 50 mg/kg, po 50 mg/kg, parent drug): 23.4 ± 3 min
- clearance ([1]; male, C57/BL6, mouse, plasma, iv 5 mg/kg): 88.3 mL/min/kg
- AUC(0-inf) [1, 5]: 2.5 ± 0.6 µM·h
- MRT last ([1]; male, C57/BL6, mouse, plasma, iv 5 mg/kg, parent drug, 0-last up to 7 h): 33.6 ± 4.2 min
- AUC(0-t) [1, 5]: 2.4 ± 0.6 µM·h
- Vd ([1]; male, C57/BL6, mouse, plasma, iv 5 mg/kg, read-out: Vss): 3 ± 0.5 L/kg
- bioavailability ([1]; male, C57/BL6, mouse, plasma, po 50 mg/kg vs iv 5 mg/kg, read-out: F (bioavailability)): 4.9 ± 1.7%
- Cmax [1, 6]: 1700 ± 400 nM
- MRT last [1, 6]: 32.4 ± 7.8 min
- AUC(0-t) [1, 6]: 1.1 ± 0.1 µM·h
- MAT (mean absorption time = MRTpo–MRTiv) ([1]; po 50 mg/kg): 0 h
- IC50 at 24 h [2]: > 50 µM
- IC50 ([3]; 36 h life cycle, PfKI3 C580Y): 0.27 nM
- IC90 ([3]; 36 h life cycle, PfKI3 C580Y): 0.43 nM
- RI = IC50 for PL08-09 (5C)/IC50 for W2 [3]: 0.2
- IC50 ([4]; asexual blood stage Pf K1, multidrug resistant, SYBR Green I, ± SEM): 1.01 ± 0.19 nM
- RI (resistance index) = IC50 K1/IC50 NF54 [4]: 0.85
- EC50 (HepG2; read-out: Cytotoxicity EC50 HepG2): > 50 µM
- SI = EC50 HepG2/IC50 P. berghei sporozoites (HepG2): > 1767
